# Test results as given in US10307357B2, “Prebiotic oral care compositions containing an alkyl glycoside” (COLGATE-PALMOLIVE COMPANY, priority 2013, dated 2019).
# Tests used:
# Type in all cases: cell-based
# Actinomyces naeslundii = test: Twenty-four hour optical density growth in BHI; details: over 24 hours, control = 1
# Experimental: (§1) The extent of growth of the tested bacteria in response to selected glycosides (β-methyl-D-galactoside and α-methyl-D-galactoside) was investigated by setting up growth curves in a nutritionally rich medium (brain heart infusion broth (BHI), Oxoid), over 24 hours. Late exponential growth phase liquid cultures were prepared by transferring the respective bacterium from blood agar plates to BHI and overnight incubation at 37° C. in an anaerobic atmosphere for A. viscosus, V. parvula, F. nucleatum, P. gingivalis, P. intermedia, T. forsythia, A. naeslundii, and C. sputigena, and in a 5% CO2 environment for S. salivarius, S. sanguinis, S. mitis, A. actinomycetemcomitans, S. mutans, S. sobrinus and S. gordonii. Overnight cultures were transferred to BHI and adjusted to a concentration of 1×10^7 CFU/ml (colony forming units per ml) by measuring the optical density at 600 nm (OD600) (BioRad SmartSpec 3000). For each strain, 200 μl of the bacterial suspension was added to a 96-well plate containing 20 μl of the respective glycosides. Final concentrations of the glycosides were set to 5, 10, 20 and 25 μmol/ml. […] Plates were incubated as previously described. For each combination of bacterium/glycoside, and for each of their respective controls (i.e. the particular bacterium in the nutritionally rich medium with no glycoside), the optical density was measured at 630 nm (OD630) at 0 h and 24 h (Thermo Scientific Multiskan Ascent). Additionally, the OD630 for combinations of bacterium/glycosides grown in a 5% CO2 environment were also measured every hour between 0 h and 9 h. […] The experiment was carried out on three different days (thus providing 3 biological replicas) and on each day the experiment was carried out in quadruple (thus providing 4 technical replicas) for each combination of bacterium with glycoside and for each control. For each day and for each combination, the average (mean) of the values obtained (as detailed above) for the four technical replicas was calculated to provide a single value for each combination on each day. The values shown in Tables 5 to 6, below, are the average (mean) of the three single values obtained for each combination of bacterium with glycoside (α-Methyl-D-Galactoside=α-MDG; β-Methyl-D-Galactoside=β-MDG).
# [1] = system: Aggregatibacter actinomycetemcomitans; test: Twenty-four hour optical density growth in BHI; details: over 24 hours, control = 1
# Experimental: as §1
# Prevotella intermedia = test: Twenty-four hour optical density growth in BHI; details: over 24 hours, control = 1
# Experimental: as §1
# Streptococcus gordonii [2] = test: Twenty-four hour optical density growth in BHI; details: over 24 hours, control = 1
# Experimental: as §1
# Streptococcus mutans [3] = test: Twenty-four hour optical density growth in BHI; details: over 24 hours, control = 1
# Experimental: as §1
# Streptococcus salivarius = test: Twenty-four hour optical density growth in BHI; details: over 24 hours, control = 1
# Experimental: as §1
# Tannerella forsythia [4] = test: Twenty-four hour optical density growth in BHI; details: over 24 hours, control = 1
# Experimental: as §1
# Veillonella parvula = test: Twenty-four hour optical density growth in BHI; details: over 24 hours, control = 1
# Experimental: as §1
# Streptococcus gordonii [5] = test: Twenty-four hour biofilm growth (crystal violet); details: 24 hours, control = 1
# Experimental: (§2) The increase in biofilm formation of the tested bacteria in response to selected glycosides (β-methyl-D-galactoside and α-methyl-D-galactoside) was investigated by setting up biofilm growth assays in a nutritionally rich medium (brain heart infusion broth (BHI), Oxoid), over 24 hours. Late exponential growth phase liquid cultures were prepared by transferring the respective bacterium from blood agar plates to BHI and overnight incubation at 37° C. in an anaerobic atmosphere for A. viscosus, V. parvula, P. gingivalis, P. intermedia, T. forsythia, A. naeslundii, and C. sputigena, and in a 5% CO2 environment for S. salivarius, S. sanguinis, S. mitis, A. actinomycetemcomitans, S. mutans, and S. gordonii. Overnight cultures were transferred to BHI and adjusted to a concentration of 1×10^7 CFU/ml by measuring the optical density at 600 nm (OD600) (BioRad SmartSpec 3000). For each strain, 200 μl of the bacterial suspension was added to a 96-well plate containing 20 μl of the respective glycosides. Final concentrations of the glycosides were set to 5, 10, 20 and 25 μmol/ml. […] Additionally, for each bacterium tested, a background control, to correct for background staining, was added. This background control contained the bacterium tested and 0.03 weight % chlorhexidine, as an antiseptic. Plates were incubated as previously described. After 24 hrs the supernatant was removed from the wells of the plates. The wells were washed twice with 1×100 μL PBS (phosphate buffered saline), fixed for 20 minutes with 96% vol. ethanol (96% vol. solution in water) and the biofilm retained at the bottom of the wells was stained with 1 weight % crystal violet (1 weight % solution in water). The bound dye was dissolved with 5% vol. acetic acid (5% vol. solution in water). Quantification of the stained biofilm was performed by measuring the absorbance at 630 nm using a Multiskan Ascent microplate reader (Thermo Scientific). […] The experiment was carried out on three different days (thus providing 3 biological replicas) and each day the experiment was carried out in quadruple (thus providing 4 technical replicas) for each combination of bacterium with glycoside and for each control. For each day and for each combination, the average (mean) of the values obtained (as detailed above) for the four technical replicas was calculated to provide a single value for each combination on each day. The values shown in Tables 7 to 8, below, are the average (mean) of the three single values obtained for each combination of bacterium with glycoside.
# Streptococcus mitis = test: Twenty-four hour biofilm growth (crystal violet); details: 24 hours, control = 1
# Experimental: as §2
# Streptococcus mutans [6] = test: Twenty-four hour biofilm growth (crystal violet); details: 24 hours, control = 1
# Experimental: as §2
# Tannerella forsythia [7] = test: Twenty-four hour biofilm growth (crystal violet); details: 24 hours, control = 1
# Experimental: as §2
smiles,measurement,setting,value
CO[C@@H]1O[C@H](CO)[C@H](O)[C@H](O)[C@H]1O [β-methyl-D-galactoside],maximal OD630 divided by control (extent of growth),Actinomyces naeslundii; 5 μmol/ml,0.9746
same,maximal OD630 divided by control (extent of growth),Actinomyces naeslundii; 10 μmol/ml,0.9516
same,maximal OD630 divided by control (extent of growth),Actinomyces naeslundii; 20 μmol/ml,0.9705
same,maximal OD630 divided by control (extent of growth),Actinomyces naeslundii; 25 μmol/ml,0.9802
same,maximal OD630 divided by control (extent of growth),[1]; 5 μmol/ml,0.7099
same,maximal OD630 divided by control (extent of growth),[1]; 10 μmol/ml,0.7723
same,maximal OD630 divided by control (extent of growth),[1]; 20 μmol/ml,0.7373
same,maximal OD630 divided by control (extent of growth),[1]; 25 μmol/ml,0.7472
same,maximal OD630 divided by control (extent of growth),Prevotella intermedia; 5 μmol/ml,0.9000
same,maximal OD630 divided by control (extent of growth),Prevotella intermedia; 10 μmol/ml,0.8909
same,maximal OD630 divided by control (extent of growth),Prevotella intermedia; 20 μmol/ml,0.9071
same,maximal OD630 divided by control (extent of growth),Prevotella intermedia; 25 μmol/ml,0.9102
same,maximal OD630 divided by control (extent of growth),Streptococcus gordonii [2]; 5 μmol/ml,0.9811
same,maximal OD630 divided by control (extent of growth),Streptococcus gordonii [2]; 10 μmol/ml,0.9760
same,maximal OD630 divided by control (extent of growth),Streptococcus gordonii [2]; 20 μmol/ml,0.9954
same,maximal OD630 divided by control (extent of growth),Streptococcus gordonii [2]; 25 μmol/ml,1.0054
same,maximal OD630 divided by control (extent of growth),Streptococcus mutans [3]; 5 μmol/ml,0.9473
same,maximal OD630 divided by control (extent of growth),Streptococcus mutans [3]; 10 μmol/ml,0.9083
same,maximal OD630 divided by control (extent of growth),Streptococcus mutans [3]; 20 μmol/ml,0.7929
same,maximal OD630 divided by control (extent of growth),Streptococcus mutans [3]; 25 μmol/ml,0.5618
same,maximal OD630 divided by control (extent of growth),Streptococcus salivarius; 5 μmol/ml,1.2275
same,maximal OD630 divided by control (extent of growth),Streptococcus salivarius; 10 μmol/ml,1.5208
same,maximal OD630 divided by control (extent of growth),Streptococcus salivarius; 20 μmol/ml,1.7353
same,maximal OD630 divided by control (extent of growth),Streptococcus salivarius; 25 μmol/ml,1.7445
same,maximal OD630 divided by control (extent of growth),Tannerella forsythia [4]; 5 μmol/ml,0.9652
same,maximal OD630 divided by control (extent of growth),Tannerella forsythia [4]; 10 μmol/ml,0.9920
same,maximal OD630 divided by control (extent of growth),Tannerella forsythia [4]; 20 μmol/ml,0.9847
same,maximal OD630 divided by control (extent of growth),Tannerella forsythia [4]; 25 μmol/ml,1.0042
same,maximal OD630 divided by control (extent of growth),Veillonella parvula; 5 μmol/ml,0.8912
same,maximal OD630 divided by control (extent of growth),Veillonella parvula; 10 μmol/ml,0.9129
same,maximal OD630 divided by control (extent of growth),Veillonella parvula; 20 μmol/ml,0.9145
same,maximal OD630 divided by control (extent of growth),Veillonella parvula; 25 μmol/ml,0.9462
same,biofilm OD 630 nm divided by control (biofilm growth),Streptococcus gordonii [5]; 5 μmol/ml,0.7601
same,biofilm OD 630 nm divided by control (biofilm growth),Streptococcus gordonii [5]; 10 μmol/ml,0.6695
same,biofilm OD 630 nm divided by control (biofilm growth),Streptococcus gordonii [5]; 20 μmol/ml,0.6763
same,biofilm OD 630 nm divided by control (biofilm growth),Streptococcus gordonii [5]; 25 μmol/ml,0.6429
same,biofilm OD 630 nm divided by control (biofilm growth),Streptococcus mitis; 5 μmol/ml,1.3127
same,biofilm OD 630 nm divided by control (biofilm growth),Streptococcus mitis; 10 μmol/ml,1.1242
same,biofilm OD 630 nm divided by control (biofilm growth),Streptococcus mitis; 20 μmol/ml,1.1524
same,biofilm OD 630 nm divided by control (biofilm growth),Streptococcus mitis; 25 μmol/ml,1.1692
same,biofilm OD 630 nm divided by control (biofilm growth),Streptococcus mutans [6]; 5 μmol/ml,1.3512
same,biofilm OD 630 nm divided by control (biofilm growth),Streptococcus mutans [6]; 10 μmol/ml,1.0007
same,biofilm OD 630 nm divided by control (biofilm growth),Streptococcus mutans [6]; 20 μmol/ml,1.1097
same,biofilm OD 630 nm divided by control (biofilm growth),Streptococcus mutans [6]; 25 μmol/ml,1.2791
same,biofilm OD 630 nm divided by control (biofilm growth),Tannerella forsythia [7]; 5 μmol/ml,0.7494
same,biofilm OD 630 nm divided by control (biofilm growth),Tannerella forsythia [7]; 10 μmol/ml,0.6979
same,biofilm OD 630 nm divided by control (biofilm growth),Tannerella forsythia [7]; 20 μmol/ml,0.9049
same,biofilm OD 630 nm divided by control (biofilm growth),Tannerella forsythia [7]; 25 μmol/ml,0.8051
